Reference: ChEMBL document CHEMBL1240436, “Synthesis and biological evaluation of novel 2,4'-bis substituted diphenylamines as anticancer agents and potential epidermal growth factor receptor tyrosine kinase inhibitors” (Eur J Med Chem, 2010)

System: MCF7
Assay: Cytotoxicity against human MCF7 cells after 48 hrs by SRB assay
Assay type: functional, cell-based

COc1ccc(/C=N/NC(=O)c2ccc(Nc3ccccc3C(=O)N/N=C/c3ccc(OC)c(OC)c3)cc2)cc1OC
IC50: 810 nM

Sc1nnc(-c2ccc(Nc3ccccc3-c3nnc(S)o3)cc2)o1
IC50: 2000 nM

c1ccc(CSc2nnc(-c3ccc(Nc4ccccc4-c4nnc(SCc5ccccc5)o4)cc3)o2)cc1
IC50: 730 nM

C=CCSc1nnc(-c2ccc(Nc3ccccc3-c3nnc(SCC=C)o3)cc2)o1
IC50: 1050 nM

CN(C)c1ccc(/C=N/NC(=O)c2ccc(Nc3ccccc3C(=O)N/N=C/c3ccc(N(C)C)cc3)cc2)cc1
IC50: 1230 nM

CCNc1nnc(-c2ccc(Nc3ccccc3-c3nnc(NCC)s3)cc2)s1
IC50: 940 nM

CCn1c(S)nnc1-c1ccc(Nc2ccccc2-c2nnc(S)n2CC)cc1
IC50: 2380 nM
